Assay results as given in patent publication US20260306476A1, “ANTIBACTERIAL COMPOUND PBT2” (priority 2022, published 2026).
Values after ≈ are worked out from the molar mass of the structure shown.

What was measured:
[1] = system: Neisseria gonorrhoeae; assay: MIC / susceptibility across Neisseria gonorrhoeae strains; format: cell-based; details: for MIC: Neisseria gonorrhoeae
Text: (§1) 13 multidrug resistant WHO strains of Neisseria gonorrhoeae were selected to cover antimicrobial resistance phenotypes to all the antibiotics currently used. MS11 is a laboratory strain and ATCC49226 is a CLSI standard MIC control strain (CLSI. 2022. Performance Standards for Antimicrobial Susceptibility Testing, 32nd Edition. Clinical and Laboratory Standards Institute which is hereby incorporated by reference in its entirety). The MICs (minimum inhibitory concentration) of PBT2 alone in the absence of zinc or a further antimicrobial agent against these Neisseria gonorrhoea strains are summarised in Table 1.

[2] = system: non-typeable Haemophilus influenzae (NTHi); assay: Sensitivity across NTHi strains; format: cell-based; details: all strains tested
Method: The MIC of PBT2 against five non-typeable Haemophilus influenzae (NTHi) strains was determined (CLSI. 2022. Performance Standards for Antimicrobial Susceptibility Testing, 32nd Edition. Clinical and Laboratory Standards Institute).

[3] = system: Streptococcus uberis (S. uberis); details: in the absence of an antibiotic; cited from earlier work
[4] = system: gram-positive and gram-negative bacteria; details: PBT2 in the presence of zinc; cited from earlier work
[5] = human; 250 mg/day for up to 72 hours; NCT02249728; cited from earlier work
[6] = system: Helicobacter pylori ATCC 43504; assay: MIC of PBT2 alone (agar); format: cell-based; details: ATCC43504
[7] = system: Neisseria meningitidis MC58 (B); assay: MIC of PBT2 (broth and agar)
[8] = system: erythromycin-resistant group A Streptococcus (GAS); details: in the absence of an antibiotic; cited from earlier work
[9] = system: Neisseria gonorrhoeae WHO G; assay: MIC of PBT2 alone (broth and agar); format: cell-based
Text: as §1

[10] = system: Neisseria gonorrhoeae WHO O; assay: MIC of PBT2 alone (broth and agar); format: cell-based
Text: as §1

[11] = system: Neisseria gonorrhoeae WHO M; assay: MIC of PBT2 alone (broth and agar); format: cell-based
Text: as §1

[12] = system: Neisseria gonorrhoeae WHO Z; assay: MIC of PBT2 alone (broth and agar); format: cell-based
Text: as §1

[13] = system: Neisseria gonorrhoeae WHO E; assay: MIC of PBT2 alone (broth and agar); format: cell-based
Text: as §1

[14] = system: Neisseria gonorrhoeae WHO X; assay: MIC of PBT2 alone (broth and agar); format: cell-based
Text: as §1

[15] = system: Neisseria gonorrhoeae WHO P; assay: MIC of PBT2 alone (broth and agar); format: cell-based
Text: as §1

[16] = system: Neisseria gonorrhoeae WHO Y; assay: MIC of PBT2 alone (broth and agar); format: cell-based
Text: as §1

[17] = system: Neisseria gonorrhoeae WHO N; assay: MIC of PBT2 alone (broth and agar); format: cell-based
Text: as §1

[18] = system: Neisseria gonorrhoeae WHO K; assay: MIC of PBT2 alone (broth and agar); format: cell-based
Text: as §1

[19] = system: Neisseria gonorrhoeae WHO C; assay: MIC of PBT2 alone (broth and agar); format: cell-based
Text: as §1

[20] = system: Neisseria gonorrhoeae WHO F; assay: MIC of PBT2 alone (broth and agar); format: cell-based
Text: as §1

[21] = system: Neisseria gonorrhoeae WHO L; assay: MIC of PBT2 alone (broth and agar); format: cell-based
Text: as §1

[22] = system: Neisseria gonorrhoeae MS11; assay: MIC of PBT2 alone (broth and agar); format: cell-based
Text: as §1

CN(C)Cc1ccc2c(Cl)cc(Cl)c(O)c2n1 [PBT2, 5,7-dichloro-2-[(dimethylamino)methyl]quinolin-8-ol]
MIC ([1]; MDR Neisseria gonorrhoeae): 0.313 µg/mL (≈ 1.15 µM)
MIC ([1]; all strains tested, agar, PBT2 alone): 0.312 to 0.625 µg/mL (≈ 1.15 to 2.31 µM)
MIC ([1]; all strains tested, broth, PBT2 alone): 0.156 to 0.312 µg/mL (≈ 0.575 to 1.15 µM)
susceptibility ([1]; all strains tested, PBT2 alone): highly susceptible
sensitivity [2]: sensitive
antibacterial activity [3]: neither PBT2 nor zinc alone displayed antibacterial activity which would be suitable to treat an infection
susceptibility of bacteria to antibiotics [4]: more susceptible to antibiotics
plasma drug level (AUC) [5]: 1,660 ng*h/ml
MIC [6]: 2.5 µg/mL
MIC ([7]; agar): 0.039 µg/mL
MIC ([7]; broth): 0.156 µg/mL
antibacterial activity [8]: neither PBT2 nor zinc alone displayed antibacterial activity which would be suitable to treat an infection
MIC ([9]; agar): 0.312 µg/mL
MIC ([9]; broth): 0.156 µg/mL
MIC ([10]; agar): 0.625 µg/mL
MIC ([10]; broth): 0.156 µg/mL
MIC ([11]; agar): 0.625 µg/mL
MIC ([11]; broth): 0.312 µg/mL
MIC ([12]; MIC concentration used in time-kill assay): 0.313 µg/mL
MIC ([12]; agar): 0.625 µg/mL
MIC ([12]; broth): 0.312 µg/mL
MIC ([13]; agar): 0.312 µg/mL
MIC ([13]; broth): 0.156 µg/mL
MIC ([14]; agar): 0.625 µg/mL
MIC ([14]; broth): 0.156 µg/mL
MIC ([15]; agar): 0.625 µg/mL
MIC ([15]; broth): 0.312 µg/mL
MIC ([16]; agar): 0.625 µg/mL
MIC ([16]; broth): 0.156 µg/mL
MIC ([17]; agar): 0.625 µg/mL
MIC ([17]; broth): 0.156 µg/mL
MIC ([18]; agar): 0.625 µg/mL
MIC ([18]; broth): 0.312 µg/mL
MIC ([19]; agar): 0.625 µg/mL
MIC ([19]; broth): 0.312 µg/mL
MIC ([20]; agar): 0.312 µg/mL
MIC ([20]; broth): 0.156 µg/mL
MIC ([21]; agar): 0.625 µg/mL
MIC ([21]; broth): 0.156 µg/mL
MIC ([22]; agar): 0.625 µg/mL
MIC ([22]; broth): 0.156 µg/mL
